In patent US20200369594A1, “COMPOUNDS COMPRISING SHORT-CHAIN FATTY ACID MOIETIES AND COMPOSITIONS AND METHODS THEREOF” (priority 2018, published 2020):
Several values for one entry are separate records, joined by “and”; a condition that tells them apart may be missing. Equal values may be shown once.

How the values were obtained:
[1] = tested on: dextran sulfate sodium (DSS)-induced colitis in mice; test: mouse dextran sulfate sodium (DSS) model of acute ulcerative colitis; assay type: in vivo, mice (Swiss Webster); settings: for restoration of colon length (in words): DSS-induced colitis in mice, oral administration; for Colon Content Score (0-3): key: 0=normal, no blood observed; 1=semi-solid stool, may be slightly blood tinged; 2=semi-solid to fluid stool with definite evidence of blood; 3=bloody fluid or no content, (include animals with no observable distal content in this category)
[2] = viscosity (flow property) and taste assessment; assay type: physicochemical
Experimental: Properties of provided compounds and compositions can be readily tested, including using a number of methods widely known and practiced in the art, in accordance with the present disclosure. For example, viscosity and/or taste of provided compounds can be readily tested. In some embodiments, viscosity was assessed by testing whether a provided compound could readily flow out of a vial or be swirled. In some embodiments, viscosity was assessed by testing whether a provided compound could be administered by direct drinking by a subject. In some embodiments, viscosity can be measured quantitatively or qualitatively by methods and instruments as known and practiced in the art. In some embodiments, taste was assessed by testing whether a provided compound could be administered by direct drinking by a subject.

[3] = CsA (75 mg/kg PO QD) vs. Compound I-1 (2 g/kg PO BID)
[4] = Naïve vs. Compound I-1 (2 g/kg PO BID)
[5] = Vehicle vs. Compound I-1 (2 g/kg PO BID)
[6] = individual animals, necropsy day 7, 3% DSS, Compound I-1 2 g/kg PO, BID (d0-6)

Compound	Mean Diff., Tukey's multiple comparisons test (colon length, FIG. 2) [1, 3]	Significant? Tukey's multiple comparisons test (colon length, FIG. 2) [1, 3]	restoration of colon length (in words) [1]	restoration of colon length (in words) ([1]; listed as compound I-1)	Mean Diff., Tukey's multiple comparisons test (colon length, FIG. 2) [1, 4]	Significant? Tukey's multiple comparisons test (colon length, FIG. 2) [1, 4]	Mean Diff., Tukey's multiple comparisons test (colon length, FIG. 2) [1, 5]	Significant? Tukey's multiple comparisons test (colon length, FIG. 2) [1, 5]	Colon Content Score (0-3) [1, 6]	Colon Length [1, 6]	Colon Weight:Length [1, 6]	Colon Wet Wt [1, 6]	flow properties and taste for formulation [2]	viscosity compared with glycerol [2]
CCCC(=O)OCC(COC(=O)CCC(=O)OCC(COC(=O)CCC)OC(=O)CCC)OC(=O)CCC (stereo not drawn) [Compound I-1]	0.65	No	significantly restore colon length	effectively restored colon length	1.85	Yes	−1.05	Yes	1 (8×) and 2 (2×)	8.00 cm (3×) and 8.25 cm and 6.25 cm (2×) and 8.50 cm and 7.00 cm (2×) and 6.75 cm	0.046 g/cm and 0.039 g/cm and 0.043 g/cm and 0.063 g/cm and 0.042 g/cm and 0.054 g/cm and 0.034 g/cm and 0.047 g/cm and 0.056 g/cm and 0.048 g/cm	0.369 g and 0.320 g and 0.343 g and 0.391 g and 0.332 g (2×) and 0.339 g and 0.291 g and 0.390 g and 0.324 g	surprisingly good flow properties and taste	lower viscosity than glycerol
CCCC(=O)OCC(COC(=O)CCC)OC(=O)CCC(=O)OC(COC(=O)CCC)COC(=O)CCC [Compound I-2]													surprisingly good flow properties and taste	
